Laboratory results reported in patent US20130109738A1, “Control of Cardiac Growth, Differentiation and Hypertrophy” (The Board of Trustees of the Leland Stanford Junior …, priority 2010, published 2013).
Entries after “also recorded” stand apart in the source; their conditions may differ.

Tests used:
α-MHC promoter = assay: Luciferase reporter assay of α-MHC promoter activity in SW13 cells; format: cell-based, human
Description: (§1) Cloning and Luciferase Reporter Assay Full length as well as serially truncated versions of intergenic α-MHC and β-MHC promoters were cloned into pREP4-Luc reporter plasmid, as detailed in the supplementary method. The constructs were transfected into SW13 cells with lipofectamine 2000 (Invitrogen, Calif.) along with pREP7-RL as a transfection efficiency control and Brg1 expression vector with the appropriate empty vector control. Luciferase activity was measured and normalized to that of Renilla luciferase construct using the Dual-Luciferase Reporter System (Promega, Wis.).
(§2) Cloning and Luciferase Reporter Assay Specific truncations for the reporter constructs are as follows: for α-MHC promoter, full length promoter spans from 4243 by upstream and 192 by downstream of the transcription start site (−4243, +192), serially truncated versions span (−2537, +192), (−1802, +192), and (−462, +192). Likewise, β-MHC promoters span (−3561, +222), (−1770, +222), and (−835, +222).

β-MHC promoter = assay: Luciferase reporter assay of β-MHC promoter activity in SW13 cells; format: cell-based, human
Description: as §1, §2

[1] = system: α-MHC and β-MHC expression in cardiac ventricles; assay: Quantitative RT-PCR of ventricular α-MHC and β-MHC in cultured whole embryos; parameters: species or system mouse
Description: (§3) Whole embryo culture Embryos ([…]) with intact yolk sacs were isolated and incubated in 1 ml culture medium containing 97% rat serum (Harlan Biosciences, Cincinnati, Ohio), 2 mg glucose, 100 U penicillin G and 100 μg streptomycin that was rotated slowly at […] and gassed periodically (every 8 hours) with 20% oxygen, 5% carbon dioxide, 75% nitrogen from E8.75 to E9.5, and 70% oxygen, 5% carbon dioxide and 25% nitrogen from E9.5 to E10.5. BMP10 (10 nM, RD Systems, Minneapolis, Minn.), BSA (125 ng/ml), TSA (100-500 nM, Sigma-Aldrich, St. Louis, Mo.), PJ-34 (20 uM, Alexis Corporation, San Diego)), BrdU (30_g/mL, Simga-Aldrich) or DMSO was added directly to the culture medium or during the last six hours for BrdU. Embryos were harvested 36-48 hours later for analysis.
Quantitative RT-PCR analysis. Quantitative RT-PCR analyses were performed as described previously to examine gene expressions in the cardiac ventricles of E10.5/E11.5 embryonic hearts and adult hearts. The following primer sequences were used: Murine MHO, 5′ primer […], 3′ primer […]. Murine β-MHC, 5″ primer […], 3′ primer […]. Murine HPRT, 5′ primer GCTGGTGAAAAGGACCTCT, 3′ primer […]. Murine Brg1, 5″ primer […], 3′ primer […]. Human H3F3A, 5′ primer […], 3′ primer […]. Human Brg1, 5′ primer […], 3′ primer […]. Human α-MHC and β-MHC were by Taqman probes (Applied Biosciences, Foster City, Calif.. RT-PCR reactions were performed using SYBR green master mix (BioRad, Hercules, Calif.) or Taqman reagents (Applied Biosciences), and the primer sets were tested to be quantitative. Threshold cycles and melting curve measurements were performed with software.

[2] = system: myocardial proliferation in cultured embryos; assay: Myocardial BrdU incorporation in whole embryo culture; parameters: species or system mouse
Description: Quantitative analysis of myocardial development H&E-stained 7 μm paraffin sections were used for the morphometric analysis of the compact and trabecular myocardium. The following parameters were measured: thickness of compact 4 myocardium, number of trabeculi directly connected to compact myocardium, and trabecular area normalized to ventricular size. BrdU-stained sections were used to count the number of BrdU-positive cells per area of myocardium or per number of cells in the endocardium or endocardial cushions. All quantification and scale measurement were performed using NIS-Elements software (Nikon).
as §3
Proliferation and apoptosis analysis. Pregnant mice were injected with BrdU (Sigma, 100 μg/ml, intraperitoneal injection) for 6 hours prior to embryo isolation at E10.5 or E11.5. Incorporated BrdU was stained in the tissue-section of the heart according to manufacturer's protocol (Zymed Laboratories, South San Francisco, Calif.). Apoptosis of embryos were analyzed by TUNEL staining using a kit (Roche, Applied Science, Indianapolis, Ind.).

embryos = assay: Gross morphology of cultured whole embryos; parameters: species or system mouse; conditions: whole embryos cultured from E9 to E10, compared to littermates treated with DMSO
Description: as §3

[3] = whole embryos cultured from E9 to E10, vs DMSO

Molecule: CN(C)CC(=O)Nc1ccc2[nH]c(=O)c3ccccc3c2c1 [PJ-34]
- effect on Brg1-mediated α-MHC repression (α-MHC promoter; SW13 cells, PARP1 inhibition): reduced
- effect on Brg1-mediated β-MHC activation (β-MHC promoter; SW13 cells, PARP1 inhibition): reduced
- MHC switch in cultured embryos ([1]; embryos cultured from E9 to E10, PJ-34 20 uM): exhibited α- and β-MHC switches; also recorded: causes MHC switch from β-MHC to α-MHC

Molecule: CC(/C=C/C(=O)NO)=C\[C@@H](C)C(=O)c1ccc(N(C)C)cc1 [TSA, trichostatin A]
- effect on BAF-mediated repression of α-MHC reporter (α-MHC promoter; SW13 cells transfected with Brg1 expression vector): reversed the BAF-mediated repression of α-MHC
- myocardial proliferation (BrdU incorporation) ([2]; wildtype embryos cultured from E8.75 to E10.5, BrdU last six hours, vs DMSO): normal
- gross morphology of treated embryos (embryos): grossly normal
- effect on Brg1-induced β-MHC promoter activation (β-MHC promoter; SW13 cells transfected with Brg1-expressing plasmid): no significant impact
- reduction of β-MHC promoter activity (β-MHC promoter; SW13 cells, basal activity without Brg1): 55%
- increase in α/β MHC ratio [1, 3]: 3.5 folds
- α-MHC expression [1, 3]: significantly up-regulated
- β-MHC expression [1, 3]: down-regulated

B1: BMP10: BMP10 protein (10 nM, RD Systems) required for the proliferation of myocardial cells (protein, UniProt O95393 317-424, looked up)
Bone morphogenetic protein 10: NAKGNYCKRTPLYIDFKEIGWDSWIIAPPGYEAYECRGVCNYPLAEHLTPTKHAIIQALVHLKNSQKASKACCVPTKLEPISILYLDKGVVTYKFKYEGMAVSECGCR
- increase of BrdU incorporation ([2]; Sm22αCre;Brg1F/F embryos cultured from E8.75 for 42 to 48 hours, BMP10 10 nM): 2.6 folds
- BrdU incorporation restored to (relative to control embryos) ([2]; Sm22αCre;Brg1F/F embryos cultured from E8.75 for 42 to 48 hours, BMP10 10 nM, untreated mutant 33+/−12%): 85+/−10%
- effect on premature MHC differentiation (α-MHC over-, β-MHC under-expression) ([1]; cultured Sm22αCre;Brg1F/F embryos, BMP10 vs BSA): failed to reverse the premature MHC differentiation
